Strand notation (5' to 3'): a small letter for the sugar, then the base; units joined by * are phosphorothioate-linked, units joined directly phosphodiester-linked; [ ] holds rarer units or linkages, { } end groups; capitals alone tell only the bases. d = 2'-deoxy (DNA)
How the values were obtained:
[1] = tested on: ICAM-1; test: ELISA screening for ICAM-1 expression in interleukin-1β-stimulated cells (HUVEC and A549); format: cell-based, human; conditions: interleukin-1β-stimulated cells, two cell lines (HUVEC, A549)
[2] = tested on: VCAM-1; test: ELISA of VCAM-1 expression in TNF-stimulated HUVEC; format: cell-based, human; conditions: for VCAM-1 EXPRESSION 30 nM oligo (VCAM-1 expression is given as % of control) / VCAM-1 EXPRESSION 50 nM oligo (VCAM-1 expression is given as % of control): TNF-α 16 hours; for IC50: TNF-α, read-out: IC50 for inhibition of VCAM-1 expression (asterisk)
Protocol: Primary human umbilical vein endothelial (HUVEC) cells, passage 2 to 5, were plated in 96-well plates and allowed to reach confluence. Cells were washed three times with Opti-MEM (GIBCO, Grand Island N.Y.). Cells were treated with increasing concentrations of oligonucleotide diluted in Opti-MEM containing 10 μg/ml DOTMA solution (Bethesda Research Labs, Bethesda, Md.) for 4 hours at 370C. The medium was removed and replaced with EGM-UV (Clonetics, San Diego Calif.) plus oligonucleotide. Tumor necrosis factor α was added to the medium (2.5 ng/ml) and the cells were incubated an additional 4 hours at 37° C.
ELAM-1 expression was determined by ELISA. Cells were gently washed three times with Dulbecco's phosphate-buffered saline (D-PBS) prewarmed to 37° C. Cells were fixed with 95% ethanol at 4° C. for 20 minutes, washed three times with D-PBS and blocked with 2% BSA in D-PBS. Cells were incubated with ELAM-1 monoclonal antibody BBA-1 (R&D Systems, Minneapolis Minn.) diluted to 0.5 μg/ml in D-PBS containing 2% BSA for 1 hour at 37° C. Cells were washed three times with D-PBS and the bound ELAM-1 antibody detected with biotinylated goat anti-mouse secondary antibody followed by β-galactosidase-conjugated streptavidin as described in Example 1.
Inhibition of VCAM-1 expression by fifteen antisense phosphorothioate oligonucleotides was determined using the ELISA assay approximately as described in Example 12, except that cells were stimulated with TNF-àfor 16 hours and VCAM-1 expression was detected by a VCAM-1 specific monoclonal antibody (R & D Systems, Minneapolis, Minn.) used at 0.5 μg/ml.

| Substance | inhibition of ICAM-1 expression, relative activity in words [1] | VCAM-1 EXPRESSION 30 nM oligo (VCAM-1 expression is given as % of control) [2] | VCAM-1 EXPRESSION 50 nM oligo (VCAM-1 expression is given as % of control) [2] | IC50 [2] [nM] |
| --- | --- | --- | --- | --- |
| ISIS 1573: P=S, human ICAM-1 3′-Untranslated (2849-2866), SEQ ID NO 4, GAGGCTGAGGTGGGAGGA (antisense dG*dA*dG*dG*dC*dT*dG*dA*dG*dG*dT*dG*dG*dG*dA*dG*dG*dA) | not as active as ISIS-1939 |  |  |  |
| ISIS 1931: P=S, human ICAM-1 AUG Codon (55-74), SEQ ID NO 7, CATAGCGAGGCTGAGGTTGC (antisense dC*dA*dT*dA*dG*dC*dG*dA*dG*dG*dC*dT*dG*dA*dG*dG*dT*dT*dG*dC) | inhibit ICAM-1 expression |  |  |  |
| ISIS 1932: P=S, human ICAM-1 AUG Codon (72-91), SEQ ID NO 8, CGGGGGCTGCTGGGAGCCAT (antisense dC*dG*dG*dG*dG*dG*dC*dT*dG*dC*dT*dG*dG*dG*dA*dG*dC*dC*dA*dT) | slightly less active than ISIS 1570 and ISIS 1931 |  |  |  |
| ISIS 1933: P=S, human ICAM-1 Coding Region (111-130), SEQ ID NO 9 (antisense dA*dG*dA*dG*dC*dC*dC*dC*dG*dA*dG*dC*dA*dG*dG*dA*dC*dC*dA*dG) | weak activity |  |  |  |
| ISIS 1934: P=S, human ICAM-1 Coding Region (351-370), SEQ ID NO 10 (antisense dT*dG*dC*dC*dC*dA*dT*dC*dA*dG*dG*dG*dC*dA*dG*dT*dT*dT*dG*dA) | weak activity |  |  |  |
| ISIS 1935: P=S, human ICAM-1 Coding Region (889-908), SEQ ID NO 11 (antisense dG*dG*dT*dC*dA*dC*dA*dC*dT*dG*dA*dC*dT*dG*dA*dG*dG*dC*dC*dT) | weak activity |  |  |  |
| ISIS 1936: P=S, human ICAM-1 Coding Region (1459-1468), SEQ ID NO 12 (antisense dC*dT*dC*dG*dC*dG*dG*dG*dT*dG*dA*dC*dC*dT*dC*dC*dC*dC*dT*dT) | weak activity |  |  |  |
| ISIS 1937: P=S, human ICAM-1 Termination Codon (1651-1687), SEQ ID NO 13, TCAGGGAGGCGTGGCTTGTG (antisense dT*dC*dA*dG*dG*dG*dA*dG*dG*dC*dG*dT*dG*dG*dC*dT*dT*dG*dT*dG) | moderate activity |  |  |  |
| ISIS 1938: P=S (printed P = 5), human ICAM-1 Termination Codon (1668-1687), SEQ ID NO 14, CCTGTCCCGGGATAGGTTCA (antisense dC*dC*dT*dG*dT*dC*dC*dC*dG*dG*dG*dA*dT*dA*dG*dG*dT*dT*dC*dA) | moderate activity |  |  |  |
| ISIS 2307: P=S, human ICAM-1 3′-Untranslated (1976-1995), SEQ ID NO 26 (antisense dT*dG*dT*dC*dC*dT*dC*dA*dT*dG*dG*dT*dG*dG*dG*dG*dC*dT*dA*dT) | least active of the series |  |  |  |
| ISIS 2634: 2′-fluoro A, C & U; P=S, human ICAM-1 AUG-Codon (64-81), SEQ ID NO 1 (antisense TGGGAGCCATAGCGAGGC; DNA at G, 2'-fluoro at ACT, all phosphorothioate, T or U not given here) | less effective |  |  |  |
| ISIS 2637: 2′-fluoro A, C & U, human ICAM-1 3′-Untrans. (1952-1971), SEQ ID NO 15 (antisense CCCCCACCACTTCCCCTCTC; all 2'-fluoro, backbone and T or U not given here; further chemistry not fully specified) | did not exhibit this level of activity |  |  |  |
| ISIS 2973: 2′-O-methyl; P=S, human ICAM-1 3′-Untrans. (1952-1971), SEQ ID NO 15 (CCCCCACCACTTCCCCTCTC; listed as DNA, chemistry not fully specified) | did not exhibit this level of activity |  |  |  |
| ISIS 2974: 2′-O-methyl; P=S, human ICAM-1 AUG Codon (64-81), SEQ ID NO 1 (TGGGAGCCATAGCGAGGC; listed as DNA, chemistry not fully specified) | approximately threefold less effective than ISIS 1570 |  |  |  |
| ISIS 5847: phosphorothioate, human VCAM-1 3′-UTR 2957-2976, SEQ ID NO 72, AACATCTCCGTACCATGCCA (DNA, all phosphorothioate, methylation of C not given here) |  | 51.8 % of control | 24.6 % of control | ≤ 50 |
| ISIS 5862: phosphorothioate, human VCAM-1 5′-UTR 48-68, SEQ ID NO 62, CCTGTGTGTGCCTGGGAGGG (DNA, all phosphorothioate, methylation of C not given here) |  | 115.0 % of control | 3.5 % of control |  |
| ISIS 5863: phosphorothioate, human VCAM-1 CODING 745-764, SEQ ID NO 64, CAGCCTGCCTTACTGTGGGC (DNA, all phosphorothioate, methylation of C not given here) |  | 95.8 % of control | 66.7 % of control |  |
| ISIS 5874: phosphorothioate, human VCAM-1 CODING 1032-1052, SEQ ID NO 65, CTTGAACAATTAATTCCACCT (DNA, all phosphorothioate, methylation of C not given here) |  | 66.5 % of control | 35.3 % of control | ≤ 50 |
| ISIS 5875: phosphorothioate, human VCAM-1 CODING 2183-2203, SEQ ID NO 68, GTCTTTGTTGTTTTCTCTTCC (DNA, all phosphorothioate, methylation of C not given here) |  | 59.2 % of control | 34.8 % of control | ≤ 50 |
| ISIS 5876: phosphorothioate, human VCAM-1 CODING 2038-2057, SEQ ID NO 67, CTGTGTCTCCTGTCTCCGCT (DNA, all phosphorothioate, methylation of C not given here) |  | 43.5 % of control | 26.6 % of control | ≤ 50 |
| ISIS 5884: phosphorothioate, human VCAM-1 5′-UTR 1-19, SEQ ID NO 60, CGATGCAGATACCGCGGAGT (antisense dC*dG*dA*dT*dG*dC*dA*dG*dA*dT*dA*dC*dC*dG*dC*dG*dG*dA*dG*dT) |  | 79.2 % of control | 37.2 % of control | ≤ 50 |
| ISIS 5885: phosphorothioate, human VCAM-1 E/I 1633-1649 + intron, SEQ ID NO 66, TTACCATTGACATAAAGTGTT (DNA, all phosphorothioate, methylation of C not given here) |  | 84.4 % of control | 52.4 % of control |  |
